Results taken from patent US20230203041A1, “ANTAGONISTS OF THE ADENOSINE A2A RECEPTOR” (AdoRx Therapeutics Limited, priority 2020, published 2023).

Key:
[1] = molecular target: T1, human Adenosine A1 receptor (Homo sapiens, UniProt P30542); test: Adenosine receptor TR-FRET binding assay (CA200645 displacement), A1
T1 sequence (P30542 1-326): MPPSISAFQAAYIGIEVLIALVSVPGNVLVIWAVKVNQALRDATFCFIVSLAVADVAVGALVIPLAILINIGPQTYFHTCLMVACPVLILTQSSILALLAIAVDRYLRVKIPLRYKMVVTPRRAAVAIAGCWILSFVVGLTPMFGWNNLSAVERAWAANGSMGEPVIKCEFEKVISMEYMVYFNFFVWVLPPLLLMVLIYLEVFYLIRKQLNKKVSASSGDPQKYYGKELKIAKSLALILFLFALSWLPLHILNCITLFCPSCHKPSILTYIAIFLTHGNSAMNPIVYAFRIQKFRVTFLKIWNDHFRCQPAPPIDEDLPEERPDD

[2] = molecular target: T2, human Adenosine A2a receptor (Homo sapiens, UniProt P29274); test: Adenosine receptor TR-FRET binding assay (CA200645 displacement), A2a; settings: 100 nM CA200645, CHO cell membranes, 2 hours at room temperature
T2 construct: expressed in transfected cells; host or cells: CHO cell membranes
T2 sequence (P29274 whole entry): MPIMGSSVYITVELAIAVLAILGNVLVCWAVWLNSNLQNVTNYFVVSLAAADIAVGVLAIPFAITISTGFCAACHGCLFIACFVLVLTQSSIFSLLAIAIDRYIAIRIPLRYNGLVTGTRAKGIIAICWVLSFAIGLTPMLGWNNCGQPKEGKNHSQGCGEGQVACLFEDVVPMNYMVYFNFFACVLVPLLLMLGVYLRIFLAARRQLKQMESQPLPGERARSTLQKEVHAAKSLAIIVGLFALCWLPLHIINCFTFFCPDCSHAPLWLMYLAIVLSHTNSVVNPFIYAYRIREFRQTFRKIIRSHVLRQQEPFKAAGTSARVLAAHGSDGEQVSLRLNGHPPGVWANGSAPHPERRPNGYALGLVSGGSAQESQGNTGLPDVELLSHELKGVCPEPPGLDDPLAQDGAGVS

[3] = molecular target: T3, human Adenosine A2b receptor (Homo sapiens, UniProt P29275); test: Adenosine receptor TR-FRET binding assay (CA200645 displacement), A2b; settings: 30 nM CA200645, CHO cell membranes, 2 hours at room temperature
T3 construct: expressed in transfected cells; host or cells: CHO cell membranes
T3 sequence (P29275 1-332): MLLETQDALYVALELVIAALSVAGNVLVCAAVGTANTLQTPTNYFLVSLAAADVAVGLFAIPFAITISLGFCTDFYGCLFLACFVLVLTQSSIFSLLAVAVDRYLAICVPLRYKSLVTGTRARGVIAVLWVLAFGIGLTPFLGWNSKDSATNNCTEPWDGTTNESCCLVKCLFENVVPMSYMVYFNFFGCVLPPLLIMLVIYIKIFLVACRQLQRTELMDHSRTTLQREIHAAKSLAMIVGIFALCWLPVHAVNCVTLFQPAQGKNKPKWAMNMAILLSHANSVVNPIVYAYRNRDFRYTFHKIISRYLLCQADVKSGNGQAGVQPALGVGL
Procedure: All FRET binding experiments were conducted at room temperature in white 384-well plates, in assay binding buffer containing 1×LabMed (Cisbio, France), 100 μg/mL saponin, 1% DMSO and 0.02% pluronic acid. Binding of the fluorescently labelled Adenosine receptor antagonist XAC (CA200645, FRET acceptor) to terbium-labelled A1, A2a, A2b and A3 adenosine receptors (FRET donors) was detected by time-resolved FRET due to the close proximity of the donor and acceptor in a binding event. To investigate the ability of unlabelled test compounds to bind to Adenosine A1, A2a, A2b and A3 receptors, dose response curves were constructed that determined the ability of a range of concentrations to inhibit the binding of 30 nM CA200645 to the A2b receptor and 100 nM CA200645 to the A1, A2a, and A3 receptor.
Serial dilution (1:3 dilutions) of test compounds in neat DMSO and transfer of a 400 nL sample of test compound into the assay plate was carried out using the Mosquito (TTP Labtech, UK). The compound samples were incubated for 2 hours at room temperature with a fixed concentration of CA200645 defined for each receptor (see above) and CHO cell membranes containing the human Adenosine A1 (0.5 μg/well), A2a (0.3 μg/well), A2b (1 μg/well) or A3 (1 μg/well) receptor in 40 μL of assay buffer. Total and non-specific binding of CA200645 was determined in the absence and presence of 10 μM XAC, respectively. Following 2 hours incubation, the level of CA200645 binding was detected on a Pherastar FSX (BMG Labtech, Germany) using standard TR-FRET settings. The terbium donor was excited with three laser flashes at a wavelength of 337 nm, and donor and acceptor emission was detected at 620 nm and 665 nm wavelengths, respectively. FRET ratios were obtained by multiplying the acceptor/donor ratio value by 10,000. Specific binding was determined by subtracting the non-specific binding FRET ratio from the total binding FRET ratio. Compound IC50 curves were analysed using GraphPad Prism 7.0 (GraphPad, USA) and Ki affinity values were determined from the obtained IC50 values using the method of Cheng and Prusoff.

[4] = tested on: CD8+ T cells in human whole blood; test: Measurement of pCREB in CD8+ T cells in human whole blood; assay type: cell-based; settings: T-cell, 1 h; heparinised human whole blood, rolipram, 3 μM NECA, 60 min, phospho-CREB in CD8+ T cells by FACS
How it was run: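 Heparinised human whole blood preincubated 20 min at 37 °C with serially diluted A2a antagonists plus rolipram, then stimulated 60 min with 3 μM NECA (final). After fixation and RBC lysis, permeabilized leukocytes stained for phospho-CREB and CD8; pCREB in CD8+ T cells read by flow cytometry.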

[5] = tested on: human PBMCs; test: CD3/CD28 stimulated IL-2 release NECA reversal assay in human PBMCs; assay type: cell-based; settings: PBMC, CD3/CD28 antibody stimulated, 1 uM NECA, 24 hours, IL-2 in culture supernatant;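 note: dose-response as % inhibition where 100% equals no-NECA control wells with CD3/CD28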
How it was run: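 PBMCs from citrated donor blood, 50,000 cells/well on plate-bound CD3 antibody (1 ug/ml), with 1 ug/ml CD28 antibody, 1 uM NECA and antagonist at 0.003-10 μM final. After 24 h at 37° C, supernatant IL-2 was measured by MSD immunoassay.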

[6] = molecular target: T4, human Adenosine A3 receptor (Homo sapiens, UniProt P0DMS8); test: Adenosine receptor TR-FRET binding assay (CA200645 displacement), A3
T4 sequence (P0DMS8 1-318): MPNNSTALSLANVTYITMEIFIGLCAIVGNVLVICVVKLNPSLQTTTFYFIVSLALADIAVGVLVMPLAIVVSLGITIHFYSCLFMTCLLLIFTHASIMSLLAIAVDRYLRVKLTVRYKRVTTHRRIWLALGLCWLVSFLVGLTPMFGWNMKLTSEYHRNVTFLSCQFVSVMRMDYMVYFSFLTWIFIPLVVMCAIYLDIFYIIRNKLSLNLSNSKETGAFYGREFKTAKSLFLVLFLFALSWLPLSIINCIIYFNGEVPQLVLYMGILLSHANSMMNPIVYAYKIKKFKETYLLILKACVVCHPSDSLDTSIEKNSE

## Cc1cc(-c2c(-c3cccc(C#N)c3)nn3ccc(NCC4(O)COC4)nc23)cc(Cl)n1 [Example 2.8]
[1]
  Ki: 62 nM
[2]
  Ki: 1.3 nM
[3]
  Ki: 3 nM
[4]
  IC50: 610 nM
[5]
  IC50: 41 nM
[6]
  Ki: > 1000 nM

## Cc1cc(-c2c(-c3cccc(C#N)c3)nn3ccc(N[C@H]4C[C@H](O)C4)nc23)cc(Cl)n1 [Example 2.18]
[1]
  Ki: 192 nM
[2]
  Ki: 2.6 nM
[3]
  Ki: 10 nM
[4]
  IC50: 1870 nM
[5]
  IC50: 46 nM
[6]
  Ki: 2430 nM

## Cc1cc(-c2c(-c3cccc(C#N)c3)nn3ccc(C(=O)NCC(C)(C)O)nc23)cc(Cl)n1 [Example 5.2]
[1]
  Ki: 294 nM
[2]
  Ki: 0.2 nM
[3]
  Ki: 24 nM
[4]
  IC50: 280 nM
[5]
  IC50: 4 nM
[6]
  Ki: > 1000 nM

## Cc1cc(-c2c(-c3cccc(C#N)c3)nn3ccc(N)nc23)cc(C)n1 [Example 1.6, 3-[5-amino-3-(2,6-dimethyl-4-pyridyl)pyrazolo[1,5-a]pyrimidin-2-yl]benzonitrile]
[1]
  Ki: 37 nM
[2]
  Ki: 2.2 nM
[3]
  Ki: 9 nM
[4]
  IC50: 250 nM
[5]
  IC50: 57 nM
[6]
  Ki: > 1000 nM

## Cc1cc(-c2c(-c3cccc(C#N)c3)nn3ccc(C(=O)N[C@@H](C)[C@H](O)CO)nc23)cc(Cl)n1 [Example 7.19, 3-(2-Chloro-6-methyl-4-pyridyl)-2-(3-cyanophenyl)-N-[(1S,2S)-2,3-dihydroxy-1-methyl-propyl]pyrazolo[1,5-a]pyrimidine-5-carboxamide]
[1]
  Ki: 20 nM
[2]
  Ki: 0.1 nM
[3]
  Ki: 4 nM
[4]
  IC50: 100 nM
[5]
  IC50: 4 nM
[6]
  Ki: 1410 nM

## Cc1cc(-c2c(-c3cccc(C#N)c3)nn3ccc(C(=O)N[C@@H](C)C(C)(C)O)nc23)cc(C)n1 [Example 92, 2-(3-Cyanophenyl)-3-(2,6-dimethyl-4-pyridyl)-N-[(1S)-2-hydroxy-1,2-dimethyl-propyl]pyrazolo[1,5-a]pyrimidine-5-carboxamide]
[1]
  Ki: 107 nM
[2]
  Ki: 0.4 nM
[3]
  Ki: 37 nM
[4]
  IC50: 20 nM
[5]
  IC50: 4 nM
[6]
  Ki: 1470 nM

## Cc1cc(-c2c(-c3cccc(C#N)c3)nn3ccc(C(=O)NCC4(O)COC4)nc23)cc(C)n1 [Example 92.3]
[1]
  Ki: 212 nM
[2]
  Ki: 2 nM
[3]
  Ki: 7 nM
[4]
  IC50: 260 nM
[5]
  IC50: 11 nM
[6]
  Ki: > 1000 nM

## COc1cc(-c2c(-c3cccc(C#N)c3)nn3ccc(N)nc23)cc(C)n1 [Example 26.2, 3-[5-Amino-3-(2-methoxy-6-methyl-4-pyridyl)pyrazolo[1,5-a]pyrimidin-2-yl]benzonitrile]
[1]
  Ki: 123 nM
[2]
  Ki: 6.2 nM
[3]
  Ki: 18 nM
[4]
  IC50: 2540 nM
[5]
  IC50: 69 nM
[6]
  Ki: 2520 nM

## Cc1cc(-c2c(-c3cccc(C#N)c3)nn3ccc(N[C@H](C)C(C)(C)O)nc23)cc(Cl)n1 [Example 2.20]
[1]
  Ki: 263 nM
[2]
  Ki: 3.4 nM
[3]
  Ki: 18 nM
[4]
  IC50: 660 nM
[5]
  IC50: 68 nM
[6]
  Ki: > 1000 nM

## Cc1cc(-c2c(-c3cccc(C#N)c3)nn3ccc(C(=O)NC(C)(C)CO)nc23)cc(Cl)n1 [Example 6.22, 3-(2-Chloro-6-methyl-4-pyridyl)-2-(3-cyanophenyl)-N-(2-hydroxy-1,1-dimethyl-ethyl)pyrazolo[1,5-a]pyrimidine-5-carboxamide]
[1]
  Ki: 61 nM
[2]
  Ki: 0.1 nM
[3]
  Ki: 5 nM
[4]
  IC50: 100 nM
[5]
  IC50: 2.5 nM
[6]
  Ki: 1910 nM

## Cc1cc(-c2c(-c3cccc(C#N)c3)nn3ccc(N[C@H]4C[C@@H](O)C4)nc23)cc(Cl)n1 [Example 2.10]
[1]
  Ki: 119 nM
[2]
  Ki: 1.4 nM
[3]
  Ki: 10 nM
[4]
  IC50: 1190 nM
[5]
  IC50: 48 nM
[6]
  Ki: 1550 nM

## Cc1cc(-c2c(-c3cccc(C#N)c3)nn3ccc(NC45CC(O)(C4)C5)nc23)cc(Cl)n1 [Example 2.1]
[1]
  Ki: 21 nM
[2]
  Ki: 0.4 nM
[3]
  Ki: 3 nM
[4]
  IC50: 1440 nM
[5]
  IC50: 12 nM
[6]
  Ki: > 1000 nM

## Cc1cc(-c2c(-c3cccc(C#N)c3)nn3ccc(NCC4(O)CC4)nc23)cc(Cl)n1 [Example 3.4]
[1]
  Ki: 56 nM
[2]
  Ki: 0.4 nM
[3]
  Ki: 2 nM
[4]
  IC50: 260 nM
[5]
  IC50: 100 nM
[6]
  Ki: 2450 nM

## Cc1cc(-c2c(-c3cccc(C#N)c3C)nn3ccc(C(=O)N[C@@H](C)C(C)(C)O)nc23)cc(C)n1 [Example 104.1, 2-(3-Cyano-2-methyl-phenyl)-3-(2,6-dimethyl-4-pyridyl)-N-[(1S)-2-hydroxy-1,2-dimethyl-propyl]pyrazolo[1,5-a]pyrimidine-5-carboxamide]
[1]
  Ki: 398 nM
[2]
  Ki: 1.2 nM
[3]
  Ki: 111 nM
[4]
  IC50: 30 nM
[5]
  IC50: 4 nM
[6]
  Ki: > 1000 nM

## Cc1cc(-c2c(-c3cccc(C#N)c3)nn3ccc(NC4CCNCC4)nc23)cc(Cl)n1 [Example 4, 3-[3-(2-Chloro-6-methyl-4-pyridyl)-5-(4-piperidylamino)pyrazolo[1,5-a]pyrimidin-2-yl]benzonitrile]
[1]
  Ki: 15 nM
[2]
  Ki: 0.1 nM
[3]
  Ki: 3 nM
[4]
  IC50: 1570 nM
[5]
  IC50: 8 nM
[6]
  Ki: > 1000 nM

## Cc1cc(-c2c(-c3cccc(C#N)c3)nn3ccc(C(=O)NC(C)(C)CN)nc23)cc(Cl)n1 [Example 7.3, N-(2-Amino-1,1-dimethyl-ethyl)-3-(2-chloro-6-methyl-4-pyridyl)-2-(3-cyanophenyl)pyrazolo[1,5-a]pyrimidine-5-carboxamide]
[1]
  Ki: 44 nM
[2]
  Ki: 2.9 nM
[3]
  Ki: 15 nM
[4]
  IC50: 1800 nM
[5]
  IC50: 172 nM
[6]
  Ki: > 1000 nM

## Cc1cc(-c2c(-c3cccc(C#N)c3)nn3ccc(N)nc23)cc(C(F)F)n1 [Example 26.1, 3-[5-Amino-3-[2-(difluoromethyl)-6-methyl-4-pyridyl]pyrazolo[1,5-a]pyrimidin-2-yl]benzonitrile]
[1]
  Ki: 17 nM
[2]
  Ki: 1.5 nM
[3]
  Ki: 2 nM
[4]
  IC50: 460 nM
[5]
  IC50: 32 nM
[6]
  Ki: 2360 nM

## COc1cc(-c2c(-c3cccc(C#N)c3)nn3ccc(NCC(C)(C)O)nc23)cc(C)n1 [Example 23.1]
[1]
  Ki: 147 nM
[2]
  Ki: 1.3 nM
[3]
  Ki: 143 nM
[4]
  IC50: 1010 nM
[5]
  IC50: 83 nM
[6]
  Ki: > 1000 nM

## Cc1cc(-c2c(-c3cccc(C#N)c3)nn3ccc(NC[C@H]4COCCN4)nc23)cc(Cl)n1 [Example 4.5]
[1]
  Ki: 189 nM
[2]
  Ki: 4.2 nM
[3]
  Ki: 25 nM
[4]
  IC50: 1060 nM
[5]
  IC50: 12 nM
[6]
  Ki: > 1000 nM

## Cc1cc(-c2c(-c3cccc(C#N)c3)nn3ccc(NCc4nnc[nH]4)nc23)cc(Cl)n1 [Example 2.23]
[1]
  Ki: 55 nM
[2]
  Ki: 6.4 nM
[3]
  Ki: 3 nM
[4]
  IC50: 570 nM
[5]
  IC50: 24 nM
[6]
  Ki: > 1000 nM

## Cc1cc(-c2c(-c3cccc(C#N)c3)nn3ccc(NC(=O)CC(C)(C)O)nc23)cc(Cl)n1 [Example 94.2, N-[3-(2-chloro-6-methyl-4-pyridyl)-2-(3-cyanophenyl)pyrazolo[1,5-a]pyrimidin-5-yl]-3-hydroxy-3-methyl-butanamide]
[1]
  Ki: 81 nM
[2]
  Ki: 1.2 nM
[3]
  Ki: 7 nM
[4]
  IC50: 530 nM
[5]
  IC50: 20 nM
[6]
  Ki: 2050 nM

## Cc1cc(-c2c(-c3cccc(C#N)c3)nn3ccc(C(=O)NC(C)(C)C#N)nc23)cc(Cl)n1 [Example 6.21, 3-(2-Chloro-6-methyl-4-pyridyl)-N-(1-cyano-1-methyl-ethyl)-2-(3-cyanophenyl)pyrazolo[1,5-a]pyrimidine-5-carboxamide]
[1]
  Ki: 252 nM
[2]
  Ki: 0.1 nM
[3]
  Ki: 17 nM
[4]
  IC50: 430 nM
[5]
  IC50: 1.3 nM
[6]
  Ki: > 1000 nM
